Source: patent US5001048A (priority 1987, dated 1991)
Several values for one entry are separate records, joined by “and”; a condition that tells them apart may be missing. Equal entries are not always repeated. Where two headings read alike, the source gives them in different places.

Tests used:
[1] = tested on: acetylcholine receptor (AChR); type: binding, Electrophorus electricus; details: for % Activity Increase: 24 to 48 hours after immobilization, over nondetergent containing membrane; for stabilization of AChR activity in the membrane (in words): retention of binding activity at immobilization and after storage
[2] = Control sensor (same formulation, no AChR added) impedance response to agent challenge; details: 50 to 100 uL
Procedure: (§1) All measurements utilized wetted biosensors (i.e., sensors presoaked in deionized water and test buffer). The biosensor was washed with deionized water to a constant output value (that is, it maintained the same impedance value upon further washing). This established a baseline value for the sensor in absence of ligand. Test samples in buffer were then added. Output (changes in impedance, etc) was recorded as a function of time.
(§2) Two approaches were used to evaluate the functionality of the two types (i.e., receptor and antibody-based) of biosensors. In the first approach, measurements were taken sequentially on control and test sensors ("chips") and compared. This approach can be done quickly for rapid evaluation of a sensor (FIGS. 1 and 3). However, background (i.e., non specific binding to the sensor) is not subtracted out automatically. […] This allows for simultaneous challenge (i.e., challenge of both the control and the receptor-containing biosensor at the same time) and background is automatically subtracted out.
(§3) In the case in which sequential measurements were used, alternating current measurements were made on the sensors, and changes were recorded in impedance (measured in ohms), capacitance or phase angle. Samples in volumes of 5 to 200 microliters (ul) were analyzed; […].
(§4) Typically, a sample to be tested (i.e., one thought to contain an analyte of interest) was applied to a sensor which had been previously equilibrated with deionized water and readings of output impedance from the sensor were taken. Equilibration to constant readings occurred within 2 to 10 sec. Readings remained stable for at least the 5 minutes during which the output was routinely monitored. The sensor was then washed with deionized water to background equilibrium, sample was again added and readings were taken. In each case 2 to 5 cycles were carried out in this way.
^b Control sensor is the same formulation as AChR but with no AChR

[3] = tested on: immobilized acetylcholine receptor (AChR); experiment: AChR sensor alternating current impedance response to agent challenge; type: binding, Electrophorus electricus; details: for AChR sensor response: 50 to 100 uL
Procedure: as §1, §2, §3, §4

## CCCCCCCCCCCCCCCC[N+](C)(C)C.[Br-] [CTAB, cetyltrimethylammonium bromide]
[1]; detergent 0.5% by volume
  % Activity Increase: 4%
[1]; detergent 1.0% by volume
  % Activity Increase: 18%
[1]; detergent 2.0% by volume
  % Activity Increase: 28%

## C[C@H](CCC(=O)O)[C@H]1CC[C@H]2[C@@H]3[C@H](O)C[C@@H]4C[C@H](O)CC[C@]4(C)[C@H]3C[C@H](O)[C@]12C [Sodium cholate, sodium cholate]
[1]; detergent 1.0% by volume
  % Activity Increase: 110%
[1]; detergent 2.0% by volume
  % Activity Increase: 145%
[1]
  stabilization of AChR activity in the membrane (in words): best stabilizing detergents

## CCCCCCCC[N+](C)(C)CCCS(=O)(=O)[O-] [Zwittergent ™ 3-08, N-octyl-N-N dimethyl-3-amino-1-propane sulfonate]
[1]; detergent 1.0% by volume
  % Activity Increase: 55% and 30%
[1]; detergent 2.0% by volume
  % Activity Increase: 55% and 38%

## glucose
[2]; agent 0.5 ug/ml
  Control sensor response: 28 K.OMEGA.
[2]; agent 5 ug/ml
  Control sensor response: 33 K.OMEGA.
[2]; agent 50 ug/ml
  Control sensor response: 33 K.OMEGA.
[2]; agent 500 ug/ml
  Control sensor response: 58 K.OMEGA.
[3]; agent 0.5 ug/ml
  % Change of AChR sensor with respect to control: 3%
  AChR sensor response: 29 K.OMEGA.
[3]; agent 5 ug/ml
  % Change of AChR sensor with respect to control: 0%
  AChR sensor response: 33 K.OMEGA.
[3]; agent 50 ug/ml
  % Change of AChR sensor with respect to control: 6%
  AChR sensor response: 35 K.OMEGA.
[3]; agent 500 ug/ml
  % Change of AChR sensor with respect to control: 5%
  AChR sensor response: 61 K.OMEGA.
[3]; dose-response, Table 5
  change in resistance between control and AChR sensors (in words): no change

## octylphenoxy polyethoxyethanol [Triton ™ X-100]
[1]; detergent 0.1% by volume
  % Activity Increase: 12%
[1]; detergent 0.5% by volume
  % Activity Increase: 55%
[1]; detergent 1.0% by volume
  % Activity Increase: 85%
[1]; detergent 2.0% by volume
  % Activity Increase: 110%
[1]
  stabilization of AChR activity in the membrane (in words): best stabilizing detergents
